Experimental data from the NIST ThermoML archive (doi:10.1016/j.jct.2017.07.004).
Numbers after ± are expanded uncertainties.

Assay: xn = mol fraction of the nth substance listed
Conditions: 100 kPa, Liquid; for viscosity: Concentric cylinders viscometry; for mass density: Vibrating tube method

CCC=O [propanal] + CC(C)O
Conditions	mass density [kg/m3]	viscosity [mPa·s]
293.15 K, x1 = 0.0812	792 ± 1	2.37 ± 0.19
293.15 K, x1 = 0.16	797.2 ± 1	2.3 ± 0.18
293.15 K, x1 = 0.24	801.6 ± 1	2.2 ± 0.18
293.15 K, x1 = 0.3499	806.4 ± 1	2 ± 0.16
293.15 K, x1 = 0.4402	809.2 ± 1	1.81 ± 0.15
293.15 K, x1 = 0.5619	811.4 ± 1	1.52 ± 0.12
293.15 K, x1 = 0.6483	811.8 ± 1	1.3 ± 0.1
293.15 K, x1 = 0.74	811.3 ± 1	1.06 ± 0.09
293.15 K, x1 = 0.85	809.1 ± 1	0.76 ± 0.06
293.15 K, x1 = 0.94	806 ± 1	0.51 ± 0.04
293.15 K, x1 = 1	802.4 ± 1	0.34 ± 0.03
298.15 K, x1 = 0.0812	786.6 ± 1	2.04 ± 0.16
298.15 K, x1 = 0.16	791.5 ± 1	1.97 ± 0.16
298.15 K, x1 = 0.24	795.9 ± 1	1.88 ± 0.15
298.15 K, x1 = 0.3499	800.4 ± 1	1.72 ± 0.14
298.15 K, x1 = 0.4402	803 ± 1	1.56 ± 0.13
298.15 K, x1 = 0.5619	804.9 ± 1	1.32 ± 0.11
298.15 K, x1 = 0.6483	805 ± 1	1.13 ± 0.09
298.15 K, x1 = 0.74	804.1 ± 1	0.93 ± 0.08
298.15 K, x1 = 0.85	802.3 ± 1	0.67 ± 0.05
298.15 K, x1 = 0.94	799.1 ± 1	0.46 ± 0.04
298.15 K, x1 = 1	796.2 ± 1	0.33 ± 0.03
303.15 K, x1 = 0.0812	781.5 ± 1	1.76 ± 0.14
303.15 K, x1 = 0.16	786.2 ± 1	1.69 ± 0.14
303.15 K, x1 = 0.24	790 ± 1	1.61 ± 0.13
303.15 K, x1 = 0.3499	794.5 ± 1	1.47 ± 0.12
303.15 K, x1 = 0.4402	797.1 ± 1	1.33 ± 0.11
303.15 K, x1 = 0.5619	798.8 ± 1	1.13 ± 0.09
303.15 K, x1 = 0.6483	798.8 ± 1	0.97 ± 0.08
303.15 K, x1 = 0.74	797.8 ± 1	0.8 ± 0.06
303.15 K, x1 = 0.85	795.8 ± 1	0.59 ± 0.05
303.15 K, x1 = 0.94	792.6 ± 1	0.42 ± 0.03
303.15 K, x1 = 1	790.3 ± 1	0.31 ± 0.03
308.15 K, x1 = 0.0812	776.7 ± 1	1.52 ± 0.12
308.15 K, x1 = 0.16	780.9 ± 1	1.46 ± 0.12
308.15 K, x1 = 0.24	784.3 ± 1	1.38 ± 0.11
308.15 K, x1 = 0.3499	788.2 ± 1	1.26 ± 0.1
308.15 K, x1 = 0.4402	790.5 ± 1	1.14 ± 0.09
308.15 K, x1 = 0.5619	792 ± 1	0.97 ± 0.08
308.15 K, x1 = 0.6483	792 ± 1	0.83 ± 0.07
308.15 K, x1 = 0.74	791.4 ± 1	0.69 ± 0.06
308.15 K, x1 = 0.85	789.5 ± 1	0.52 ± 0.04
308.15 K, x1 = 0.94	786.4 ± 1	0.39 ± 0.03
308.15 K, x1 = 1	784.5 ± 1	0.3 ± 0.03
313.15 K, x1 = 0.0812	771.8 ± 1	1.31 ± 0.11
313.15 K, x1 = 0.16	775.5 ± 1	1.24 ± 0.1
313.15 K, x1 = 0.24	778.8 ± 1	1.17 ± 0.09
313.15 K, x1 = 0.3499	782.4 ± 1	1.06 ± 0.09
313.15 K, x1 = 0.4402	784.3 ± 1	0.96 ± 0.08
313.15 K, x1 = 0.5619	785.7 ± 1	0.83 ± 0.07
313.15 K, x1 = 0.6483	785.8 ± 1	0.72 ± 0.06
313.15 K, x1 = 0.74	785.3 ± 1	0.61 ± 0.05
313.15 K, x1 = 0.85	783.3 ± 1	0.47 ± 0.04
313.15 K, x1 = 0.94	780.8 ± 1	0.36 ± 0.03
313.15 K, x1 = 1	779 ± 1	0.28 ± 0.02
318.15 K, x1 = 0.0812	766.8 ± 1	1.14 ± 0.09
318.15 K, x1 = 0.16	770.2 ± 1	1.08 ± 0.09
318.15 K, x1 = 0.24	773.1 ± 1	1.01 ± 0.08
318.15 K, x1 = 0.3499	776.5 ± 1	0.91 ± 0.07
318.15 K, x1 = 0.4402	778.4 ± 1	0.83 ± 0.07
318.15 K, x1 = 0.5619	779.7 ± 1	0.71 ± 0.06
318.15 K, x1 = 0.6483	779.7 ± 1	0.63 ± 0.05
318.15 K, x1 = 0.74	778.9 ± 1	0.53 ± 0.04
318.15 K, x1 = 0.85	777.2 ± 1	0.42 ± 0.03
318.15 K, x1 = 0.94	775.4 ± 1	0.33 ± 0.03
318.15 K, x1 = 1	773.5 ± 1	0.27 ± 0.02
323.15 K, x1 = 0.0812	761.6 ± 1	0.99 ± 0.08
323.15 K, x1 = 0.16	764.6 ± 1	0.94 ± 0.08
323.15 K, x1 = 0.24	767.1 ± 1	0.87 ± 0.07
323.15 K, x1 = 0.3499	770 ± 1	0.79 ± 0.06
323.15 K, x1 = 0.4402	771.7 ± 1	0.72 ± 0.06
323.15 K, x1 = 0.5619	772.8 ± 1	0.62 ± 0.05
323.15 K, x1 = 0.6483	772.8 ± 1	0.55 ± 0.04
323.15 K, x1 = 0.74	772.4 ± 1	0.47 ± 0.04
323.15 K, x1 = 0.85	770.9 ± 1	0.38 ± 0.03
323.15 K, x1 = 0.94	769.4 ± 1	0.3 ± 0.03
323.15 K, x1 = 1	768.2 ± 1	0.25 ± 0.02
